Measured values reported in patent US9840478B2 (MERCK SHARP & DOHME CORP., priority 2013, dated 2017).
Read-outs that look alike come from different tables or passages of the source.

Tested on: HIV-1 (H9IIIB strain)
Assay: Cell-based HIV infection assay using a reporter (Cell-Based), MT4-GFP cells
Conditions: 50% normal human serum, mean of at least two independent experiments, read-out: Cell-based IP
Outline: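 IC50 from 4-parameter dose-response of % viral growth inhibition, using the 48 h/24 h infected-cell ratio scaled between DMSO and a protease/integrase/NNRTI triple-drug control. Assay used MT4 cells with HIV-LTR-GFP reporter, pre-infected 24 h with HIV-1 H9IIIB, in 50% normal human serum.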

[1] = Human immunodeficiency virus 1, MT4-GFP cells infected with HIV-1 H9IIIB

SMILES	IC50 [1] [nM]	IC50 (MT4-GFP cells infected with HIV-1 H9IIIB) [nM]
CC(C)CC1CCCN1S(=O)(=O)N1CCNC[C@@H]1CCc1c(F)cncc1NC(=O)C[C@@H](c1ccc(F)cc1)c1cc(F)cc(F)c1 (stereo partly drawn) [Example 337, (3S)-3-(3,5-difluorophenyl)-N-(5-fluoro-4-{2-[(2S)-1-{[2-(2-methylpropyl)pyrrolidin-1-yl]sulfonyl}piperazin-2-yl]ethyl}pyridin-3-yl)-3-(4-fluorophenyl)propanamide]	130	
O=C(C[C@@H](c1ccc(F)cc1)c1cc(F)cc(F)c1)Nc1cncc(F)c1CC[C@H]1CNCCN1S(=O)(=O)NCC(F)CCl (stereo partly drawn) [Example 339, (3S)-N-[4-(2-{(2S)-1-[(3-chloro-2-fluoropropyl)sulfamoyl]piperazin-2-yl}ethyl)-5-fluoropyridin-3-yl]-3-(3,5-difluorophenyl)-3-(4-fluorophenyl)propanamide]	40	
CCN(CC)S(=O)(=O)N1CCNC[C@@H]1CCc1c(F)cncc1NC(=O)C[C@@H](c1ccc(F)cc1)c1cc(F)cc(F)c1 [Example 340, (3S)-N-(4-{2-[(2S)-1-(diethylsulfamoyl)pipera-zin-2-yl]ethyl}-5-fluoropyridin-3-yl)-3-(3,5-difluorophenyl)-3-(4-fluorophenyl)propanamide]	210	
O=C(C[C@@H](c1ccc(F)cc1)c1cc(F)cc(F)c1)Nc1cncc(F)c1CC[C@H]1CNCCN1C(=O)N1CCCCC1 [Example 341, (3S)-3-(3,5-difluorophenyl)-3-(4-fluorophenyl)-N-(5-fluoro-4-{2-[(2S)-1-(piperidin-1-ylcarbonyl)piperazin-2-yl]ethyl}pyridin-3-yl)propanamide]	450	
O=C(C[C@@H](c1ccc(F)cc1)c1cc(F)cc(F)c1)Nc1cncc(F)c1CC[C@H]1CNCCN1C(=O)COc1ccccc1 [Example 343, (3S)-3-(3,5-difluorophenyl)-N-(5-fluoro-4-{2-[(2S)-1-(phenoxyacetyl)piperazin-2-yl]ethyl}pyridin-3-yl)-3-(4-fluorophenyl)propanamide]	125	
O=C(C[C@@H](c1ccc(F)cc1)c1cc(F)cc(F)c1)Nc1cncc(F)c1CC[C@H]1CNCCN1C(=O)c1ccc(OC(F)(F)F)cc1 [Example 344, (3S)-3-(3,5-difluorophenyl)-3-(4-fluorophenyl)-N-(5-fluoro-4-{2-[(2S)-1-{[4-(trifluoromethoxy)phenyl]carbonyl}piperazin-2-yl]ethyl}pyridin-3-yl)propanamide]	1800	
O=C(C[C@@H](c1ccc(F)cc1)c1cc(F)cc(F)c1)Nc1cncc(F)c1CC[C@H]1CNCCN1C(=O)c1ccc2c(c1)OC(F)(F)O2 [Example 345, (3S)-N-[4-(2-{(2S)-1-[(2,2-difluoro-1,3-benzodioxol-5-yl)carbonyl]piperazin-2-yl}ethyl)-5-fluoropyridin-3-yl]-3-(3,5-difluorophenyl)-3-(4-fluorophenyl)propanamide]	1600	
O=C(C[C@@H](c1ccc(F)cc1)c1cc(F)cc(F)c1)Nc1cncc(F)c1CC[C@H]1CNCCN1C(=O)c1cccc(OC(F)(F)F)c1 [Example 346, (3S)-3-(3,5-difluorophenyl)-3-(4-fluorophenyl)-N-(5-fluoro-4-{2-[(2S)-1-{[3-(trifluoromethoxy)phenyl]carbonyl}piperazin-2-yl]ethyl}pyridin-3-yl)propanamide]	860	
CC(Oc1ccccc1)C(=O)N1CCNC[C@@H]1CCc1c(F)cncc1NC(=O)C[C@@H](c1ccc(F)cc1)c1cc(F)cc(F)c1 (stereo partly drawn) [Example 347, (3S)-3-(3,5-difluorophenyl)-N-(5-fluoro-4-{2-[(2S)-1-(2-phenoxypropanoyl)piper-azin-2-yl]ethyl}pyridin-3-yl)-3-(4-fluorophenyl)propanamide]	57	
O=C(C[C@@H](c1ccc(F)cc1)c1cc(F)cc(F)c1)Nc1cncc(F)c1CC[C@H]1CNCCN1C(=O)CCOc1ccccc1 [Example 348, (3S)-3-(3,5-difluorophenyl)-N-(5-fluoro-4-{2-[(2S)-1-(3-phenoxypropanoyl)piper-azin-2-yl]ethyl}pyridin-3-yl)-3-(4-fluorophenyl)propanamide]	190	
CC(C)(C)c1ccc(OCC(=O)N2CCNC[C@@H]2CCc2c(F)cncc2NC(=O)C[C@@H](c2ccc(F)cc2)c2cc(F)cc(F)c2)cc1 [Example 349, (3S)-N-[4-(2-{(2S)-1-[(4-tert-butylphenoxy)acetyl]pipe-razin-2-yl}ethyl)-5-fluoropyridin-3-yl]-3-(3,5-difluorophenyl)-3-(4-fluorophenyl)propanamide]	1500	
COC(=O)N[C@H](C(=O)N[C@H]1CCC[C@@H]1CC[C@H]1CNCCN1S(=O)(=O)c1ccccc1)C(c1ccc(F)cc1)c1ccc(F)cc1 [Example 350, Methyl ((S)-1,1-bis(4-fluorophenyl)-3-oxo-3-(((1S,2R)-2-(2-((S)-1-(phenylsulfonyl)piperazin-2-yl)ethyl)cyclopentyl)amino)propan-2-yl)carbamate]	12	
COC(=O)N[C@H](C(=O)N[C@@H]1CCC[C@H]1CC[C@H]1CNCCN1S(=O)(=O)c1ccccc1)C(c1ccc(F)cc1)c1ccc(F)cc1 [Example 351, Methyl ((S)-1,1-bis(4-fluorophenyl)-3-oxo-3-(((1R,2S)-2-(2-((S)-1-(phenylsulfonyl)piperazin-2-yl)ethyl)cyclopentyl)amino)propan-2-yl)carbamate]	360	
COC(=O)N[C@H](C(=O)NC1CCCC1CC[C@H]1CNCCN1S(C)(=O)=O)C(c1ccc(F)cc1)c1ccc(F)cc1 (stereo partly drawn) [Example 352, 4-fluoro-beta-(4-fluorophenyl)-Nalpha-(methoxycarbonyl)-N-(2-{2-[(2S)-1-(methylsulfonyl)piperazin-2-yl]ethyl}cyclopentyl)-L-phenylalaninamide]	190	
N[C@H](C(=O)N[C@@H]1CCCC[C@H]1CC[C@H]1CNCCN1S(=O)(=O)c1ccccc1)C(c1ccc(F)cc1)c1ccc(F)cc1 [Example 353, 4-fluoro-beta-(4-fluorophenyl)-N-[(1R,2S)-2-{2-[(2S)-1-(phenylsulfonyl)piperazin-2-yl]ethyl}cyclohexyl]-L-phenylalaninamide]	540	
COC(=O)N[C@H](C(=O)N[C@H]1CCCC[C@@H]1CC[C@H]1CNCCN1S(=O)(=O)c1ccccc1)C(c1ccc(F)cc1)c1ccc(F)cc1 [Example 354, methyl ((S)-1,1-bis(4-fluorophenyl)-3-oxo-3-(((1S,2R)-2-(2-((S)-1-(phenylsulfonyl)piperazin-2-yl)ethyl)cyclohexyl)amino)propan-2-yl)carbamate]	22	
COC(=O)N[C@H](C(=O)N[C@H]1CCCC[C@@H]1CC[C@H]1CNCCN1S(=O)(=O)c1ccccc1)[C@@H](c1ccc(Cl)cc1)C1CCOCC1 [Example 355, methyl ((1R,2S)-1-(4-chlorophenyl)-3-oxo-3-(((1S,2R)-2-(2-((S)-1-(phenylsulfonyl)piperazin-2-yl)ethyl)cyclohexyl)amino)-1-(tetrahydro-2H-pyran-4-yl)propan-2-yl)carbamate]	14	
COC(=O)N[C@H](C(=O)NC1CCCC1CC[C@H]1CNCCN1S(=O)(=O)c1ccccc1)C(c1ccc(Cl)cc1)C1CCOCC1 (stereo partly drawn) [Example 356, methyl ((1R,2S)-1-(4-chlorophenyl)-3-oxo-3-((2-(2-((S)-1-(phenylsulfonyl)piperazin-2-yl)ethyl)cyclopentyl)amino)-1-(tetrahydro-2H-pyran-4-yl)propan-2-yl)carbamate]	28	
COC(=O)NC(C(=O)NC1CC(O)CC1CC[C@H]1CNCCN1S(=O)(=O)c1ccccc1)C(c1ccc(F)cc1)c1ccc(F)cc1 (stereo partly drawn) [Example 357, Methyl ((2R)-1,1-bis(4-fluorophenyl)-3-((4-hydroxy-2-(2-((S)-1-(phenylsulfonyl)piperazin-2-yl)ethyl)cyclopentyl)amino)-3-oxopropan-2-yl)carbamate]	820	
N[C@H](C(=O)NC1CC(F)(F)CC1CC[C@H]1CNCCN1S(=O)(=O)c1ccccc1)[C@H](c1ccc(Cl)cc1)C1CCOCC1 (stereo partly drawn) [Example 360, (betaS)-4-chloro-N-(4,4-difluoro-2-{2-[(2S)-1-(phenylsulfonyl)piperazin-2-yl]ethyl}cyclopentyl)-beta-(tetrahydro-2H-pyran-4-yl)-L-phenylalaninamide]	610	
N[C@H](C(=O)NC1CC(F)(F)CC1CC[C@H]1CNCCN1S(=O)(=O)c1ccccc1)[C@H](c1ccc(Cl)cc1)C1CCOCC1 (stereo partly drawn) [Example 361, (betaS)-4-hcloro-N-(4,4-difluoro-2-{2-[(2S)-1-(phenylsulfonyl)piperazin-2-yl]ethyl}cyclopentyl)-beta-(tetrahydro-2H-pyran-4-yl)-L-phenylalaninamide]		880
N[C@H](C(=O)Nc1cccc(F)c1CC[C@H]1CNCC2(CC2)N1S(=O)(=O)c1ccccc1)C(c1ccc(F)cc1)c1ccc(F)cc1 [Example 366, (S)-2-amino-N-(3-fluoro-2-(2-((S)-4-(phenylsulfonyl)-4,7-diazaspiro[2.5]octan-5-yl)ethyl)phenyl)-3,3-bis(4-fluorophenyl)propanamide]	13	
CS(=O)(=O)N1[C@@H](CCc2c(F)cccc2NC(=O)[C@@H](N)C(c2ccc(F)cc2)c2ccc(F)cc2)CNCC12CC2 [Example 367, (S)-2-amino-N-(3-fluoro-2-(2-((S)-4-(methylsulfonyl)-4,7-diazaspiro[2.5]octan-5-yl)ethyl)phenyl)-3,3-bis(4fluorophenyl)propanamide]	47	
N[C@H](C(=O)Nc1cccc(F)c1CC[C@H]1CNCC2(CC2)N1C(=O)COc1ccccc1)C(c1ccc(F)cc1)c1ccc(F)cc1 [Example 368, (S)-2-amino-N-(3-fluoro-2-(2-((S)-4-(2-phenoxyacetyl)-4,7-diazaspiro[2.5]octan-5-yl)ethyl)phenyl)-3,3-bis(4-fluorophenyl)propanamide]	1500	
